# Assays:
# VIM-2 = VIM-2 (Escherichia coli, UniProt Q5U7L7); experiment: Enzyme activity: determination of IC50 (VIM-2); format: biochemical; conditions: read-out: VIM2 IC50
# IMP-1 = IMP-1 (Serratia marcescens, UniProt P52699); experiment: Enzyme activity: determination of IC50, fluorescence assay with CCF2-FA substrate (IMP-1); format: biochemical; conditions: 2 pM enzyme, 1.25 μM CCF2-FA, 2 hours at 25° C.; read-out: IMP1 IC50
# Outline: (§1)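 IC50s come from 4-parameter fits of inhibition versus inhibitor concentration, tested from 20 μM down to 0.00063 μM. Enzyme, CCF2-FA (1.25 μM) and inhibitor react 2 h at 25° C, pH 7, with 10 μM ZnSO4 and 0.005% Tween-20.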
# NDM-1 = NDM-1 (Klebsiella pneumoniae, UniProt C7C422); experiment: Enzyme activity: determination of IC50, fluorescence assay with CCF2-FA substrate (NDM-1); format: biochemical; conditions: 1 pM enzyme, 1.25 μM CCF2-FA, 2 hours at 25° C.; read-out: NDM1 IC50
# Outline: as §1
# [1] = test system: P. aeruginosa MB9798 (efflux WT, IMP-1); experiment: Efflux: concentration of MBL inhibitor restoring susceptibility to imipenem (MITC95), efflux+ strain; format: cell-based, Pseudomonas aeruginosa; conditions: imipenem at 2 μg/mL in the presence of a class A, C, D serine β-lactamase inhibitor closely related to relebactam
# Outline: (§2)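 Isogenic P. aeruginosa PAO1 strains, efflux+ and efflux−, transformed with IMP-1 plasmid, were tested by microbroth MIC with fixed imipenem, usually at CLSI breakpoint, plus fixed class A/C β-lactamase inhibitor against AmpC. MBL inhibitor was serially titrated; the concentration restoring susceptibility was recorded.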
# VIM-1 = VIM-1 (Pseudomonas aeruginosa, UniProt A0A0F7KYQ8); experiment: Enzyme activity: determination of IC50, fluorescence assay with CCF2-FA substrate (VIM-1); format: biochemical; conditions: 30 pM enzyme, 1.25 μM CCF2-FA, 2 hours at 25° C.; read-out: VIM1 IC50
# Outline: as §1
# [2] = test system: Serratia marcescens expressing IMP-1 (CL5741); experiment: Antibiotic potentiation activity: synergistic concentration (MITC95) with imipenem; format: cell-based; conditions: imipenem 1 μg/mL; lowest concentration inhibiting 95% of growth; 35° C., 22-24 hours
# Outline: (§3)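 Clinical MBL-expressing strains diluted into 1.1× CAMHB were incubated with compound plus imipenem at 1 μg/mL for 22–24 h at 35 °C, then absorbance was read. MITC95 is the lowest compound concentration giving 95% growth inhibition in the presence of imipenem.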
# [3] = test system: Escherichia coli expressing NDM-1 (CLB30016); experiment: as above; format: cell-based; conditions: imipenem 1 μg/mL; lowest concentration inhibiting 95% of growth; 35° C., 22-24 hours
# Outline: as §3
# [4] = test system: Klebsiella pneumoniae expressing VIM-1 (IHMA599644); experiment: as above; format: cell-based; conditions: imipenem 1 μg/mL; lowest concentration inhibiting 95% of growth; 35° C., 22-24 hours
# Outline: as §3
# [5] = test system: P. aeruginosa MB9799 (efflux mutant, IMP-1); experiment: Efflux: concentration of MBL inhibitor restoring susceptibility to imipenem (MITC95), efflux− strain; format: cell-based, Pseudomonas aeruginosa; conditions: imipenem at 2 μg/mL in the presence of a class A, C, D serine β-lactamase inhibitor closely related to relebactam
# Outline: as §2
# Chain of NDM-1 (C7C422 29-270, looked up, species assumed): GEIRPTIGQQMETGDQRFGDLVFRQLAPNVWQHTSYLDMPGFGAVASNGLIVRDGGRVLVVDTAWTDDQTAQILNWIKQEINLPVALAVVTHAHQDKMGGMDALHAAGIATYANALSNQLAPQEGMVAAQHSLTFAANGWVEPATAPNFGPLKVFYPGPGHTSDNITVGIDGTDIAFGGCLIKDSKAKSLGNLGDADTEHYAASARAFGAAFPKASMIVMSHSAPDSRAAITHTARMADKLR
# Chain of IMP-1 (P52699 19-246, looked up, species assumed): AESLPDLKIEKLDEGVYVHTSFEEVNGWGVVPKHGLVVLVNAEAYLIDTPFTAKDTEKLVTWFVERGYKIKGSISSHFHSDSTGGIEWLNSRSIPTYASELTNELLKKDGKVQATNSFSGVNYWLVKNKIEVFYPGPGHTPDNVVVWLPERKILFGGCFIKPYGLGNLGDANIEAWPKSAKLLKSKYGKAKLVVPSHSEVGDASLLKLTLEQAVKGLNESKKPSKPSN
Structure (SMILES),IC50 (VIM-2),IC50 (IMP-1),IC50 (NDM-1),MB9798 MITC95 P. aeruginosa Efflux WT [1],IC50 (VIM-1),CL5741 S.marcescens MITC95 uM IMP [2],CLB30016 E.coli MITC95 NDM [3],IHMA599644 K.pneumoniae MITC95 uM VIM [4],MB9799 MITC95 P. aeruginosa Efflux Mutant [5]
"CNC(=O)c1nsc2c1CCN(c1ccc(S(=O)(=O)N[C@@H]3CCNC3)c(S(N)(=O)=O)c1-c1nnn[nH]1)C2 [Example 28, N-methyl-6-{4-[(3R)-pyrrolidin-3-ylsulfamoyl]-3-sulfamoyl-2-(1H-tetrazol-5-yl)phenyl}-4,5,6,7-tetrahydroisothiazolo[5,4-c]pyridine-3-carboxamide]",0.48 nM,0.28 nM,0.21 nM,12.50 µM,0.15 nM,1.56 µM,0.78 µM,6.25 µM,3.13 µM
"C[C@H](N)CNS(=O)(=O)c1ccc(N2CCCn3ccnc32)c(-c2nn[nH]n2)c1S(N)(=O)=O [Example 14, (S)-N1-(2-aminopropyl)-4-(6,7-dihydroimidazo[1,2-a]pyrimidin-8(5H)-yl)-3-(2H-tetrazol-5-yl)benzene-1,2-disulfonamide]",2.6 nM,6.32 nM,1.61 nM,3.13 µM,0.97 nM,0.39 µM,0.10 µM,1.56 µM,0.78 µM
"NS(=O)(=O)c1c(S(=O)(=O)N[C@@H]2CCNC2)ccc(N2CCc3ccncc32)c1-c1nnn[nH]1 [Example 33, 4-(2,3-dihydro-1H-pyrrolo[2,3-c]pyridin-1-yl)-N1-[(3R)-pyrrolidin-3-yl]-3-(1H-tetrazol-5-yl)benzene-1,2-disulfonamide]",0.72 nM,1.73 nM,0.3 nM,6.25 µM,0.26 nM,3.13 µM,1.56 µM,3.13 µM,1.56 µM
"NCC(CN)NS(=O)(=O)c1ccc(N2CCCn3ccnc32)c(-c2nn[nH]n2)c1S(N)(=O)=O [Example 11, N1-(1,3-diaminopropan-2-yl)-4-(6,7-dihydroimidazo[1,2-a]pyrimidin-8(5H)-yl)-3-(2H-tetrazol-5-yl)benzene-1,2-disulfonamide]",3.71 nM,4.55 nM,1.95 nM,2.34 µM,1.26 nM,0.78 µM,0.20 µM,1.56 µM,1.17 µM
"NS(=O)(=O)c1c(S(=O)(=O)N[C@@H]2CCNC2)ccc(N2CCCn3nccc32)c1-c1nn[nH]n1 [Example 7, (R)-4-(6,7-dihydropyrazolo[1,5-a]pyrimidin-4(5H)-yl)-N^1-(pyrrolidin-3-yl)-3-(2H-tetrazol-5-yl)benzene-1,2-disulfonamide]",0.66 nM,2.81 nM,0.14 nM,3.13 µM,0.13 nM,3.13 µM,6.25 µM,6.25 µM,1.56 µM
"NS(=O)(=O)c1c(S(=O)(=O)N[C@@H]2CCNC2)ccc(N2CCCc3ccc(CCO)nc32)c1-c1nnn[nH]1 [Example 35, 4-[7-(2-hydroxyethyl)-3,4-dihydro-1,8-naphthyridin-1(2H)-yl]-N1-[(3R)-pyrrolidin-3-yl]-3-(1H-tetrazol-5-yl)benzene-1,2-disulfonamide]",5.59 nM,4.68 nM,4.34 nM,50.00 µM,5.78 nM,1.56 µM,0.78 µM,6.25 µM,0.78 µM
"NS(=O)(=O)c1c(S(=O)(=O)N[C@@H]2CCNC2)ccc(N2CCCn3ncnc32)c1-c1nnn[nH]1 [Example 8, (R)-4-(6,7-dihydro-[1,2,4]triazolo[1,5-a]pyrimidin-4(5H)-yl)-N1-(pyrrolidin-3-yl)-3-(1H-tetrazol-5-yl)benzene-1,2-disulfonamide]",1.09 nM,6.63 nM,0.47 nM,3.13 µM,0.2 nM,6.25 µM,3.13 µM,12.50 µM,6.25 µM
"NCCNS(=O)(=O)c1ccc(N2CCn3ccnc32)c(-c2nnn[nH]2)c1S(N)(=O)=O [Example 20, N1-(2-aminoethyl)-4-(2,3-dihydro-1H-imidazo[1,2-a]imidazol-1-yl)-3-(1H-tetrazol-5-yl)benzene-1,2-disulfonamide]",15.1 nM,9.68 nM,1.7 nM,6.25 µM,12.4 nM,0.78 µM,0.39 µM,3.13 µM,0.78 µM
"NS(=O)(=O)c1c(S(=O)(=O)N[C@@H]2CCNC2)ccc(N2CCc3cccnc3C2)c1-c1nnn[nH]1 [Example 23, 4-(5,8-dihydro-1,7-naphthyridin-7(6H)-yl)-N1-[(3R)-pyrrolidin-3-yl]-3-(1H-tetrazol-5-yl)benzene-1,2-disulfonamide]",39 nM,43.9 nM,24.3 nM,50.00 µM,21 nM,12.50 µM,3.13 µM,12.50 µM,6.25 µM
"NS(=O)(=O)c1c(S(=O)(=O)N[C@@H]2CCNC2)ccc(N2CCn3cncc3C2)c1-c1nn[nH]n1 [Example 2, (R)-4-(5,6-dihydroimidazo[1,5-a]pyrazin-7(8H)-yl)-N^1-(pyrrolidin-3-yl)-3-(2H-tetrazol-5-yl)benzene-1,2-disulfonamide]",0.68 nM,2.01 nM,0.3 nM,3.13 µM,0.16 nM,0.78 µM,0.20 µM,1.56 µM,0.78 µM
"NS(=O)(=O)c1c(S(=O)(=O)N[C@@H]2CCNC2)ccc(N2CCn3nc(C(F)(F)F)nc3C2)c1-c1nn[nH]n1 [Example 4, (R)—N^1-(pyrrolidin-3-yl)-3-(2H-tetrazol-5-yl)-4-(2-(trifluoromethyl)-5,6-dihydro-[1,2,4]triazolo[1,5-a]pyrazin-7(8H)-yl)benzene-1,2-disulfonamide]",0.48 nM,2.18 nM,2.25 nM,25.00 µM,0.35 nM,6.25 µM,3.13 µM,6.25 µM,3.13 µM
"NC[C@@H](O)CNS(=O)(=O)c1ccc(N2CC[C@H](CO)n3ccnc32)c(-c2nn[nH]n2)c1S(N)(=O)=O [Example 40, N1-((R)-3-amino-2-hydroxypropyl)-4-((R)-5-(hydroxymethyl)-6,7-dihydroimidazo[1,2-a]pyrimidin-8(5H)-yl)-3-(2H-tetrazol-5-yl)benzene-1,2-disulfonamide]",2.09 nM,5 nM,1.15 nM,1.56 µM,0.27 nM,0.39 µM,0.10 µM,1.56 µM,0.78 µM
"NS(=O)(=O)c1c(S(=O)(=O)N[C@@H]2CCNC2)ccc(N2CCc3ncc(O)cc3C2)c1-c1nnn[nH]1 [Example 24, 4-(3-hydroxy-7,8-dihydro-1,6-naphthyridin-6(5H)-yl)-N1-[(3R)-pyrrolidin-3-yl]-3-(1H-tetrazol-5-yl)benzene-1,2-disulfonamide]",0.74 nM,1.39 nM,0.28 nM,25.00 µM,0.19 nM,1.56 µM,0.39 µM,3.13 µM,3.13 µM

# — patent US20200375987A1, “METALLO-BETA-LACTAMASE INHIBITORS AND METHODS OF USE THEREOF” (priority 2018, published 2020)
